The values that follow come from patent publication US20200326330A1, “Device and method for multidimensional cell culture” (Premas Biotech Pvt Ltd, priority 2019, published 2020).

The structures appear in SMILES notation.

The term viability denotes a per cent measure of how many cells are alive, often set against a control.

In assay [1] the test system is MCF-7 cells. The experiment in a line: Morphology and growth of MCF-7 cells in 2D monolayer culture treated with doxorubicin. Format: cell-based, human. The settings on record: MCF-7 2D monolayer, 3 days.
For assay [2], the system named is MCF-7 tissueoids. The experiment in a line: Morphology and growth of MCF-7 tissueoids on AXTEX-4D treated with doxorubicin. Format: cell-based, human. The settings on record: 3 days.
The subject of assay [3] is MCF-7 cells. The experiment in a line: Prestoblue viability of MCF-7 2D monolayer culture. Format: cell-based. The settings on record: Homo sapiens, MCF7, 1 μM doxorubicin, 48 hrs, read-out: viability (prestoblue, normalized with vehicle control as 100%).
Assay [4] has as its system MCF-7 tissueoids. Put plainly: Prestoblue viability of MCF-7 tissueoids (3D) on AXTEX-4D.

Take `COc1cccc2c1C(=O)c1c(O)c3c(c(O)c1C2=O)C[C@@](O)(C(=O)CO)C[C@@H]3O[C@H]1C[C@H](N)[C@H](O)[C@H](C)O1` [doxorubicin, Doxorubicin]: in the assay on MCF-7 cells [1] (1 μM doxorubicin), the “morphology (vacuoles) in 2D culture” value was “Vacuoles were observed”. Besides, the “growth inhibition in 2D culture” value in the assay on MCF-7 cells [1] (vs DMSO vehicle control) is on record as “Dose-dependent growth inhibition”. Further, the values for the growth of tissueoids result in the assay with MCF-7 tissueoids [2] (2.5 μM doxorubicin) and in the assay with MCF-7 tissueoids [2] (5 μM doxorubicin) were “not inhibited” and “Partial growth inhibition”, respectively. Further, in the assay on MCF-7 tissueoids [2] (higher concentration (5)), the “tissueoid morphology at higher concentration” value is given as “shrinking of the tissueoid was visible”. For the same compound, the viability at 1 µM in the assay on MCF-7 cells [3] was 35%; in the assay with MCF-7 tissueoids [4] (Homo sapiens, MCF7, 48 h, read-out: viability (prestoblue, normalized with vehicle control as 100%)) it was roughly 80%. The “resistance of tissueoids compared to vehicle control” value with MCF-7 tissueoids [4] (MCF-7 tissueoids, 1 μM doxorubicin) was “partial resistance”.
